Results from paper PMC5218480 (PLoS ONE, 2017).

Test system: MV-4-11 cells
Assay: Gene expression microarray analysis (Affymetrix PrimeView) and GSEA
Format: cell-based, human
Design: RFU PODN (11730768_x_at) / Fold change /veh PODN (11730768_x_at) / RFU LINC00158 (11744669_a_at) / Fold change /veh LINC00158 (11744669_a_at) / RFU DUSP10 (11751237_a_at) / Fold change /veh DUSP10 (11751237_a_at) / RFU ID3 (11757404_x_at) / Fold change /veh ID3 (11757404_x_at) / RFU PLEKHG5 (11737974_s_at) / Fold change /veh PLEKHG5 (11737974_s_at) / RFU LRRC4B (11730491_at) / Fold change /veh LRRC4B (11730491_at) / RFU GIMAP4 (11747438_a_at) / Fold change /veh GIMAP4 (11747438_a_at) / RFU KRT8 (11758183_x_at) / Fold change /veh KRT8 (11758183_x_at) / RFU CNN1 (11734310_a_at) / Fold change /veh CNN1 (11734310_a_at) / RFU VPS37D (11726825_at) / Fold change /veh VPS37D (11726825_at) / RFU C10orf10 (11716522_x_at) / Fold change /veh C10orf10 (11716522_x_at) / RFU KIR2DL2 /// KIR2DL4 /// KIR2DL5A /// KIR2DL5B /// KIR2DS1 /// KIR2DS2 /// KIR2DS3 /// KIR2DS4 /// KIR3DL3 /// KIR3DL3 /// KIR3DS1 (11738374_at) / Fold change /veh KIR2DL2 /// KIR2DL4 /// KIR2DL5A /// KIR2DL5B /// KIR2DS1 /// KIR2DS2 /// KIR2DS3 /// KIR2DS4 /// KIR3DL3 /// KIR3DL3 /// KIR3DS1 (11738374_at) / RFU C1QL1 (11718748_at) / Fold change /veh C1QL1 (11718748_at) / RFU TMPRSS4 (11747572_a_at) / Fold change /veh TMPRSS4 (11747572_a_at) / RFU HAMP (11756126_x_at) / Fold change /veh HAMP (11756126_x_at) / RFU RNFT2 (11725882_a_at) / Fold change /veh RNFT2 (11725882_a_at) / RFU NR4A2 (11747474_a_at) / Fold change /veh NR4A2 (11747474_a_at) / RFU ABCC12 (11746883_a_at) / Fold change /veh ABCC12 (11746883_a_at) / RFU TMEM136 (11760407_x_at) / Fold change /veh TMEM136 (11760407_x_at) / RFU CLDN22 /// WWC2 (11732394_at) / Fold change /veh CLDN22 /// WWC2 (11732394_at) / RFU HLA-DPB1 (11760878_x_at) / Fold change /veh HLA-DPB1 (11760878_x_at) / RFU SPINT1 (11716480_a_at) / Fold change /veh SPINT1 (11716480_a_at) / RFU GAP43 (11754022_s_at) / Fold change /veh GAP43 (11754022_s_at) / RFU A4GNT (11735810_at) / Fold change /veh A4GNT (11735810_at) / RFU PRB3 (11715151_x_at) / Fold change /veh PRB3 (11715151_x_at) / RFU TUBB4B (11761932_at) / Fold change /veh TUBB4B (11761932_at) / RFU CAPN14 (11732068_a_at) / Fold change /veh CAPN14 (11732068_a_at) / RFU TMCC2 (11721928_a_at) / Fold change /veh TMCC2 (11721928_a_at) / RFU IRGQ (11745062_a_at) / Fold change /veh IRGQ (11745062_a_at) / RFU FAM174B (11720279_a_at) / Fold change /veh FAM174B (11720279_a_at) / RFU TMPRSS4 (11748680_a_at) / Fold change /veh TMPRSS4 (11748680_a_at) / RFU FAM212B (11763350_a_at) / Fold change /veh FAM212B (11763350_a_at) / RFU PLEKHG5 (11743358_a_at) / Fold change /veh PLEKHG5 (11743358_a_at) / RFU ZSCAN30 (11745921_a_at) / Fold change /veh ZSCAN30 (11745921_a_at) / RFU CMKLR1 (11741424_a_at) / Fold change /veh CMKLR1 (11741424_a_at) / RFU LOC101060620 /// MAPK8IP1 (11723275_at) / Fold change /veh LOC101060620 /// MAPK8IP1 (11723275_at) / RFU SPTSSB (11747773_x_at) / Fold change /veh SPTSSB (11747773_x_at) / RFU PRSS12 (11739890_at) / Fold change /veh PRSS12 (11739890_at) / RFU BIN1 (11741810_x_at) / Fold change /veh BIN1 (11741810_x_at) / RFU WNT11 (11732464_a_at) / Fold change /veh WNT11 (11732464_a_at) / RFU C10orf10 (11716521_a_at) / Fold change /veh C10orf10 (11716521_a_at) / RFU C5orf56 (11738089_at) / Fold change /veh C5orf56 (11738089_at) / RFU CYB561 (11721691_x_at) / Fold change /veh CYB561 (11721691_x_at) / RFU ANKRD19P (11752326_a_at) / Fold change /veh ANKRD19P (11752326_a_at) / RFU OR2T12 /// OR2T33 /// OR2T8 (11738714_s_at) / Fold change /veh OR2T12 /// OR2T33 /// OR2T8 (11738714_s_at) / RFU VCAN (11748164_a_at) / Fold change /veh VCAN (11748164_a_at) / RFU JSRP1 (11732532_at) / Fold change /veh JSRP1 (11732532_at) / RFU KRTAP10-11 (11738290_x_at) / Fold change /veh KRTAP10-11 (11738290_x_at) / RFU MYO3A (11730013_a_at) / Fold change /veh MYO3A (11730013_a_at) / RFU EBF3 (11725865_a_at) / Fold change /veh EBF3 (11725865_a_at) / RFU CAMK2N1 (11719241_x_at) / Fold change /veh CAMK2N1 (11719241_x_at) / RFU C5orf56 (11738088_a_at) / Fold change /veh C5orf56 (11738088_a_at) / RFU OLFML3 (11715873_a_at) / Fold change /veh OLFML3 (11715873_a_at) / RFU LOC100653217 /// NTM (11731650_a_at) / Fold change /veh LOC100653217 /// NTM (11731650_a_at) / RFU MAPK11 (11762145_a_at) / Fold change /veh MAPK11 (11762145_a_at) / RFU FIZ1 (11724087_x_at) / Fold change /veh FIZ1 (11724087_x_at) / RFU OASL (11726364_x_at) / Fold change /veh OASL (11726364_x_at) / RFU SOX15 (11748057_x_at) / Fold change /veh SOX15 (11748057_x_at) / RFU CD79A (11719716_a_at) / Fold change /veh CD79A (11719716_a_at) / RFU HIST1H1D (11736915_at) / Fold change /veh HIST1H1D (11736915_at) / RFU CASKIN2 (11723855_a_at) / Fold change /veh CASKIN2 (11723855_a_at) / RFU LOC730098 (11760151_x_at) / Fold change /veh LOC730098 (11760151_x_at) / RFU OR4N2 (11742367_at) / Fold change /veh OR4N2 (11742367_at) / RFU PRRT2 (11749266_a_at) / Fold change /veh PRRT2 (11749266_a_at) / RFU SNX32 (11753110_a_at) / Fold change /veh SNX32 (11753110_a_at) / RFU CDHR5 (11726645_a_at) / Fold change /veh CDHR5 (11726645_a_at) / RFU RCAN1 (11760418_a_at) / Fold change /veh RCAN1 (11760418_a_at) / RFU FAM167A (11723789_a_at) / Fold change /veh FAM167A (11723789_a_at) / RFU FAM26E (11764081_at) / Fold change /veh FAM26E (11764081_at) / RFU ISYNA1 (11749810_s_at) / Fold change /veh ISYNA1 (11749810_s_at) / RFU ACY1 (11761880_at) / Fold change /veh ACY1 (11761880_at) / RFU 11764098_at / Fold change /veh 11764098_at / RFU SAMD14 (11745864_x_at) / Fold change /veh SAMD14 (11745864_x_at) / RFU NPB (11741838_a_at) / Fold change /veh NPB (11741838_a_at) / RFU TMPRSS6 (11731388_a_at) / Fold change /veh TMPRSS6 (11731388_a_at) / RFU KRTAP10-2 (11738614_at) / Fold change /veh KRTAP10-2 (11738614_at) / RFU ARHGAP8 /// PRR5-ARHGAP8 (11727945_x_at) / Fold change /veh ARHGAP8 /// PRR5-ARHGAP8 (11727945_x_at) / RFU KRTAP5-7 /// NADSYN1 (11734609_at) / Fold change /veh KRTAP5-7 /// NADSYN1 (11734609_at) / RFU RASL12 (11751679_a_at) / Fold change /veh RASL12 (11751679_a_at) / RFU CDKN2B (11736163_a_at) / Fold change /veh CDKN2B (11736163_a_at) / RFU PRF1 (11729649_at) / Fold change /veh PRF1 (11729649_at) / RFU, ZNF638 /// ZNF638-IT1 / Fold change vs veh, ZNF638 /// ZNF638-IT1 / RFU, PANK3 / Fold change vs veh, PANK3 / RFU, SH3YL1 / Fold change vs veh, SH3YL1 / RFU, ZEB2 / Fold change vs veh, ZEB2 / RFU, NRIP1 / Fold change vs veh, NRIP1 / RFU, PTTG1IP / Fold change vs veh, PTTG1IP / RFU, CAPN2 / Fold change vs veh, CAPN2 / RFU, MED14 / Fold change vs veh, MED14 / RFU, SNORA58 / Fold change vs veh, SNORA58 / RFU, C1orf63 / Fold change vs veh, C1orf63 / RFU, LRRFIP1 / Fold change vs veh, LRRFIP1 / RFU, NDUFAF7 / Fold change vs veh, NDUFAF7 / RFU, SLC12A2 / Fold change vs veh, SLC12A2 / RFU, IBTK / Fold change vs veh, IBTK / RFU, ESF1 / Fold change vs veh, ESF1 / Fold change vs veh, TMEM50B / RFU, TAOK1 / Fold change vs veh, TAOK1 / RFU, ACBD3 / Fold change vs veh, ACBD3 / RFU, TMA16 / Fold change vs veh, TMA16 / RFU, RWDD3 / Fold change vs veh, RWDD3 / RFU, BCAT1 / Fold change vs veh, BCAT1 / RFU, EDEM3 / Fold change vs veh, EDEM3 / RFU, TMEM33 / Fold change vs veh, TMEM33 / RFU, WDR75 / Fold change vs veh, WDR75 / RFU, AHCTF1 / Fold change vs veh, AHCTF1 / RFU, TFRC / Fold change vs veh, TFRC / RFU, ZDHHC17 / Fold change vs veh, ZDHHC17 / RFU, NOM1 / Fold change vs veh, NOM1 / RFU, ARL8B / Fold change vs veh, ARL8B / RFU, ZBTB11 / Fold change vs veh, ZBTB11 / RFU, TAMM41 / Fold change vs veh, TAMM41 / RFU, KIAA1704 /// LOC100996395 / Fold change vs veh, KIAA1704 /// LOC100996395 / RFU, ING1 / Fold change vs veh, ING1 / RFU, TRMT61B / Fold change vs veh, TRMT61B / RFU, FUBP3 / Fold change vs veh, FUBP3 / RFU, TP53 / Fold change vs veh, TP53 / RFU, TNKS2 / Fold change vs veh, TNKS2 / RFU, ZFP14 / Fold change vs veh, ZFP14 / RFU, ACTR2 / Fold change vs veh, ACTR2 / RFU, PPP3R1 / Fold change vs veh, PPP3R1 / RFU, PIK3R1 / Fold change vs veh, PIK3R1 / RFU, HNRNPA1 / Fold change vs veh, HNRNPA1 / RFU, RNF170 / Fold change vs veh, RNF170 / RFU, ZNF28 / Fold change vs veh, ZNF28 / RFU, RNGTT / Fold change vs veh, RNGTT / RFU, OGT / Fold change vs veh, OGT / RFU, BRD1 / Fold change vs veh, BRD1 / RFU, MARS / Fold change vs veh, MARS / RFU, ZNF655 / Fold change vs veh, ZNF655 / RFU, FAHD1 / Fold change vs veh, FAHD1 / RFU, BDP1 / Fold change vs veh, BDP1 / RFU, LRRCC1 / Fold change vs veh, LRRCC1 / RFU, ARID1A / Fold change vs veh, ARID1A / RFU, ZNF146 / Fold change vs veh, ZNF146 / RFU, ZNF330 / Fold change vs veh, ZNF330 / RFU, GPN3 / Fold change vs veh, GPN3 / RFU, C9orf123 / Fold change vs veh, C9orf123 / RFU, N4BP2L2 / Fold change vs veh, N4BP2L2 / RFU, ARFIP1 / Fold change vs veh, ARFIP1 / RFU, FAM179B / Fold change vs veh, FAM179B / RFU, BCL10 / Fold change vs veh, BCL10 / RFU, UHRF1BP1L / Fold change vs veh, UHRF1BP1L / RFU, BET1 / Fold change vs veh, BET1 / RFU, CNOT2 / Fold change vs veh, CNOT2 / RFU, ZNF268 / Fold change vs veh, ZNF268 / Fold change vs veh, ZNF507 / RFU, DGCR2 / Fold change vs veh, DGCR2 / RFU, WDSUB1 / Fold change vs veh, WDSUB1 / Fold change vs veh, HSP90B1 /// MIR3652 / RFU, ADSS / Fold change vs veh, ADSS / RFU, GK / Fold change vs veh, GK / RFU, ZNF148 / Fold change vs veh, ZNF148 / RFU, TAF9 / Fold change vs veh, TAF9 / RFU, SLC1A5 / Fold change vs veh, SLC1A5 / RFU, SLMO2 / Fold change vs veh, SLMO2 / RFU, ABCC4 / Fold change vs veh, ABCC4 / RFU, LOC101060439 /// RAP1B / Fold change vs veh, LOC101060439 /// RAP1B / RFU, RFX7 / Fold change vs veh, RFX7 / RFU, GTPBP10 / Fold change vs veh, GTPBP10 / RFU, CNEP1R1 / Fold change vs veh, CNEP1R1 / RFU, BIVM-ERCC5 /// ERCC5 / Fold change vs veh, BIVM-ERCC5 /// ERCC5 / RFU, ILF3 / Fold change vs veh, ILF3 / RFU 11762660_at / Fold change /veh 11762660_at / RFU VCAN (11757783_s_at) / Fold change /veh VCAN (11757783_s_at) / RFU DDX43 (11728927_at) / Fold change /veh DDX43 (11728927_at) / RFU KRT8 (11758188_x_at) / Fold change /veh KRT8 (11758188_x_at) / RFU NKD1 (11759106_at) / Fold change /veh NKD1 (11759106_at) / RFU SRD5A1 (11742802_a_at) / Fold change /veh SRD5A1 (11742802_a_at) / RFU TPSAB1 /// TPSB2 (11721975_s_at) / Fold change /veh TPSAB1 /// TPSB2 (11721975_s_at) / RFU GSTM3 (11746129_a_at) / Fold change /veh GSTM3 (11746129_a_at) / RFU IL23R (11737362_x_at) / Fold change /veh IL23R (11737362_x_at) / RFU TMEM51 (11727254_a_at) / Fold change /veh TMEM51 (11727254_a_at) / RFU PIWIL2 (11732686_x_at) / Fold change /veh PIWIL2 (11732686_x_at) / RFU ORM1 (11744905_x_at) / Fold change /veh ORM1 (11744905_x_at) / RFU CCDC152 (11743942_at) / Fold change /veh CCDC152 (11743942_at) / RFU ECM1 (11717891_a_at) / Fold change /veh ECM1 (11717891_a_at) / RFU IL23R (11748794_a_at) / Fold change /veh IL23R (11748794_a_at) / RFU TNFAIP8L3 (11732012_x_at) / Fold change /veh TNFAIP8L3 (11732012_x_at) / RFU MBOAT4 (11741988_at) / Fold change /veh MBOAT4 (11741988_at) / RFU 11764193_at / Fold change /veh 11764193_at / RFU TMEM53 (11763286_at) / Fold change /veh TMEM53 (11763286_at) / RFU MAGEB2 (11727129_at) / Fold change /veh MAGEB2 (11727129_at) / RFU TMEM200A (11744735_a_at) / Fold change /veh TMEM200A (11744735_a_at) / RFU CCDC152 (11751479_a_at) / Fold change /veh CCDC152 (11751479_a_at) / RFU FAM211A (11726209_a_at) / Fold change /veh FAM211A (11726209_a_at) / RFU RGS16 (11746705_a_at) / Fold change /veh RGS16 (11746705_a_at) / RFU VCAN (11755009_s_at) / Fold change /veh VCAN (11755009_s_at) / RFU RHOB (11743442_s_at) / Fold change /veh RHOB (11743442_s_at) / RFU RGS16 (11720943_a_at) / Fold change /veh RGS16 (11720943_a_at) / RFU RGS16 (11720944_at) / Fold change /veh RGS16 (11720944_at) / RFU, VPS4B / Fold change vs veh, VPS4B / RFU, CREB1 / Fold change vs veh, CREB1 / RFU, DNAJC13 / Fold change vs veh, DNAJC13 / RFU, GNAQ / Fold change vs veh, GNAQ / RFU, CDK5R1 / Fold change vs veh, CDK5R1 / RFU, ZRANB3 / Fold change vs veh, ZRANB3 / RFU, CUL4A / Fold change vs veh, CUL4A / RFU, CCNY / Fold change vs veh, CCNY / RFU, UFL1 / Fold change vs veh, UFL1 / RFU, COG3 / Fold change vs veh, COG3 / RFU, DIAPH2 / Fold change vs veh, DIAPH2 / RFU, SKA2 / Fold change vs veh, SKA2 / RFU, AFF3 / Fold change vs veh, AFF3 / RFU, LMF1 / Fold change vs veh, LMF1 / RFU, IPO11 / Fold change vs veh, IPO11 / RFU, DFFB / Fold change vs veh, DFFB / RFU, FOXP1 / Fold change vs veh, FOXP1 / RFU, CARD8 / Fold change vs veh, CARD8 / RFU, STRN3 / Fold change vs veh, STRN3 / RFU, ADK / Fold change vs veh, ADK / RFU, RASSF2 / Fold change vs veh, RASSF2 / RFU, WIPF1 / Fold change vs veh, WIPF1 / RFU, LARP1B / Fold change vs veh, LARP1B / RFU, RASA1 / Fold change vs veh, RASA1 / RFU, RB1 / Fold change vs veh, RB1 / RFU, PPFIA1 / Fold change vs veh, PPFIA1 / RFU, MAT2A / Fold change vs veh, MAT2A / RFU, CCT5 / Fold change vs veh, CCT5 / RFU, WDR92 / Fold change vs veh, WDR92 / RFU, CUX1 / Fold change vs veh, CUX1 / RFU, TTC7A / Fold change vs veh, TTC7A / RFU, TMEM135 / Fold change vs veh, TMEM135 / RFU, DEPTOR / Fold change vs veh, DEPTOR / RFU, CPM / Fold change vs veh, CPM / RFU, DNAJB6 / Fold change vs veh, DNAJB6 / RFU, CACNA2D3 / Fold change vs veh, CACNA2D3 / RFU, DTX4 / Fold change vs veh, DTX4 / RFU, TFCP2 / Fold change vs veh, TFCP2 / RFU, GMCL1 /// GMCL1P1 / Fold change vs veh, GMCL1 /// GMCL1P1 / RFU, AEBP2 / Fold change vs veh, AEBP2 / RFU, SNHG1 /// SNORD22 /// SNORD25 /// SNORD26 /// SNORD27 /// SNORD28 /// SNORD29 /// SNORD31 / Fold change vs veh, SNHG1 /// SNORD22 /// SNORD25 /// SNORD26 /// SNORD27 /// SNORD28 /// SNORD29 /// SNORD31 / Fold change (Aza/veh), C12orf56 (ProbeSet 11735607_a_at) / Fold change (ACY-1035/veh), C12orf56 (ProbeSet 11735607_a_at) / Fold change (Aza/veh), FGFR1OP (ProbeSet 11751329_s_at) / Fold change (ACY-1035/veh), FGFR1OP (ProbeSet 11751329_s_at) / Fold change (Aza/veh), VPS36 (ProbeSet 11739960_a_at) / Fold change (ACY-1035/veh), VPS36 (ProbeSet 11739960_a_at) / RFU SYPL1 (11715823_x_at) / Fold change /veh SYPL1 (11715823_x_at) / RFU IGFBP7 (11715501_s_at) / Fold change /veh IGFBP7 (11715501_s_at) / RFU REEP3 (11722064_at) / Fold change /veh REEP3 (11722064_at) / RFU IGLL1 (11728026_x_at) / Fold change /veh IGLL1 (11728026_x_at): dose or concentration left out as unconfirmed
Settings: MV-4-11 cells, 48 hours

## Nc1ccc(-c2cccs2)cc1NC(=O)c1ccc2c(c1)cc(C1CC1)n2CCN1CCOCC1 [ACY-1035]
  RFU NKD1 (11759106_at): 19.24 RFU
